Data: patent publication US11352338B2, “Substituted isoindolinones” (BioTheryX, Inc., priority 2018, dated 2022)

What was measured:
[1] = target: T1, PDE6D (Homo sapiens, UniProt O43924+Q96SW2); assay: Western blot, degradation of cellular PDE6D in MV-4-11 cells; type: cell-based; details: MV4-11; tested at 1 μM, MV-4-11 cells, 6-8 hours; read-out: % Degradation compared to DMSO, PDE6D
T1 construct: endogenous in cells; host or cells: MV-4-11
Method: (§1) MV-4-11 cells were grown in RPMI 1640 media supplemented with 10% fetal bovine serum, streptomycin and penicillin.
(§2) Cells were cultured at approximately 10^6 cells per mL and incubated in DMSO or the indicated compounds for 6-8 hours. Whole cell extracts were prepared using RIPA lysis buffer according to manufacturer's protocol (Pierce). Briefly, 4×10^6 cells were washed once in PBS, the cell pellets were resuspended in RIPA lysis buffer and allowed to incubate for 15 minutes on ice. Cells debris was removed by centrifugation and the cleared whole cell lysates were transferred to new tubes for further analysis.
(§3) For Western blot analysis, whole cell protein extracts were separated on 4-12% SDS-polyacrylamide gels, transferred to nitrocellulose and probed with the indicated primary antibodies. Membranes were subsequently washed and probed with the appropriate IRDye secondary antibodies (LI-COR). The signal was detected using the Odyssey Imaging System (LI-COR).
(§4) The following antibodies were used in these studies: Anti-PDE6D antibody: Santa Cruz Biotechnology, sc-166854 (Dallas, Tex.); Anti-Ikaros: Abcam, ab191394 (Cambridge, Mass.); anti-CK1α antibody: Abcam, ab108296 (Cambridge, Mass.); β-Actin (8H10D10) mouse monoclonal antibody: Cell Signaling Technology, #3700 (Danvers, Mass.); IRDye 680RD Goat anti-rabbit antibody: LI-COR, 926-68071 (Lincoln, Nebr.); and IRDye 800CW Goat anti-mouse antibody: LI-COR, 926-32210 (Lincoln, Nebr.).
(§5) The % degradation values are reported as “A”, “B”, “C”, or “D.” “A” represents a % degradation value of less than 25% (value<25%); “B” represents a % degradation value of equal to or more than 25% and less than 50% (25%≤value<50%); “C” represents a % degradation value of equal to or more than 50% and less than 75% (50%≤value<75%); and “D” represents a % degradation value of equal to or more than 75% (value≥75%). […] was used as control.

[2] = test system: TNFα; assay: TNFα inhibition, LPS-induced PBMCs or CD14+ monocytes, Meso Scale assay; type: cell-based; details: LPS 100 ng/mL 18-24 h, read-out: % Inhibition compared to DMSO, TNFα; for inhibition at 1 µM: tested at 1 μM; for inhibition at 10 µM: tested at 10 μM
Method: (§6) Either frozen primary blood mononuclear cells (PBMCs) or frozen CD14+ mobilized peripheral blood monocytes were purchased from AllCells (PB003F, Normal Peripheral Blood MNC (Alameda, Calif.)). Cells were quick thawed, washed 1-time with RPMI-1640 (10% FBS/1% Pen-Strep) and plated in 96 well plates at 200,000 cells per well. Cells were pretreated with DMSO only or with the indicated compound for 1 h and then induced with 100 ng/mL lipopolysaccharide (LPS) for 18-24 h. The supernatant was analyzed for IL-1β, IL-6, and TNFα, using Meso Scale assay according to manufacturer's protocol. The negative control wells were treated with DMSO.
(§7) IL-1β, IL-6 and TNFα activities were tested at two different concentrations (1 μM and 10 μM) and the results are shown in Tables 2 and 3 respectively.

[3] = target: T2, CK1α (Homo sapiens, UniProt P48729+Q96SW2); assay: Western blot, degradation of cellular CK1α in MV-4-11 cells; type: cell-based; details: MV4-11, tested at 1 μM, 6-8 hours, read-out: % Degradation compared to DMSO, CK1α
T2 construct: endogenous in cells; host or cells: MV-4-11
T2 sequence (P48729 whole entry): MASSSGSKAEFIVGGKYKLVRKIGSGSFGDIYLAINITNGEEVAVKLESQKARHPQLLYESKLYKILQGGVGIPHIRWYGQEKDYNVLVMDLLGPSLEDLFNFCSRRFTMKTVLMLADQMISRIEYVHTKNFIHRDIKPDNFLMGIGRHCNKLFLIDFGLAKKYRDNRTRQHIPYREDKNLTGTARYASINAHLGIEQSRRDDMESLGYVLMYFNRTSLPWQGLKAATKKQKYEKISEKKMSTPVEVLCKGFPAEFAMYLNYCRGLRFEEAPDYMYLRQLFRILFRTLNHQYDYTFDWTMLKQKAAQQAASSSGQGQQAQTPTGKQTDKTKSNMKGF
T2 sequence (Q96SW2 whole entry): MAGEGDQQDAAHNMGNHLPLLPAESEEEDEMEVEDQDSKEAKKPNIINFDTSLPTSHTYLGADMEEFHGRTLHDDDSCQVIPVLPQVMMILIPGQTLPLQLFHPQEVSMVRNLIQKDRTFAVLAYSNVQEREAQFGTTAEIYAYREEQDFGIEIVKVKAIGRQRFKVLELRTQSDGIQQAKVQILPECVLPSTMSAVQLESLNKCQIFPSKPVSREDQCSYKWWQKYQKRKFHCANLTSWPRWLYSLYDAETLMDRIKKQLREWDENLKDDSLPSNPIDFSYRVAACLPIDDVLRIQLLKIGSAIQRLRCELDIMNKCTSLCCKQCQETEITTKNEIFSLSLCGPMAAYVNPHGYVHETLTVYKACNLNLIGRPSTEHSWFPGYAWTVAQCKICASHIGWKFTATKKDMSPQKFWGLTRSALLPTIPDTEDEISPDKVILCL
T2 sequence (Q16531 whole entry partner): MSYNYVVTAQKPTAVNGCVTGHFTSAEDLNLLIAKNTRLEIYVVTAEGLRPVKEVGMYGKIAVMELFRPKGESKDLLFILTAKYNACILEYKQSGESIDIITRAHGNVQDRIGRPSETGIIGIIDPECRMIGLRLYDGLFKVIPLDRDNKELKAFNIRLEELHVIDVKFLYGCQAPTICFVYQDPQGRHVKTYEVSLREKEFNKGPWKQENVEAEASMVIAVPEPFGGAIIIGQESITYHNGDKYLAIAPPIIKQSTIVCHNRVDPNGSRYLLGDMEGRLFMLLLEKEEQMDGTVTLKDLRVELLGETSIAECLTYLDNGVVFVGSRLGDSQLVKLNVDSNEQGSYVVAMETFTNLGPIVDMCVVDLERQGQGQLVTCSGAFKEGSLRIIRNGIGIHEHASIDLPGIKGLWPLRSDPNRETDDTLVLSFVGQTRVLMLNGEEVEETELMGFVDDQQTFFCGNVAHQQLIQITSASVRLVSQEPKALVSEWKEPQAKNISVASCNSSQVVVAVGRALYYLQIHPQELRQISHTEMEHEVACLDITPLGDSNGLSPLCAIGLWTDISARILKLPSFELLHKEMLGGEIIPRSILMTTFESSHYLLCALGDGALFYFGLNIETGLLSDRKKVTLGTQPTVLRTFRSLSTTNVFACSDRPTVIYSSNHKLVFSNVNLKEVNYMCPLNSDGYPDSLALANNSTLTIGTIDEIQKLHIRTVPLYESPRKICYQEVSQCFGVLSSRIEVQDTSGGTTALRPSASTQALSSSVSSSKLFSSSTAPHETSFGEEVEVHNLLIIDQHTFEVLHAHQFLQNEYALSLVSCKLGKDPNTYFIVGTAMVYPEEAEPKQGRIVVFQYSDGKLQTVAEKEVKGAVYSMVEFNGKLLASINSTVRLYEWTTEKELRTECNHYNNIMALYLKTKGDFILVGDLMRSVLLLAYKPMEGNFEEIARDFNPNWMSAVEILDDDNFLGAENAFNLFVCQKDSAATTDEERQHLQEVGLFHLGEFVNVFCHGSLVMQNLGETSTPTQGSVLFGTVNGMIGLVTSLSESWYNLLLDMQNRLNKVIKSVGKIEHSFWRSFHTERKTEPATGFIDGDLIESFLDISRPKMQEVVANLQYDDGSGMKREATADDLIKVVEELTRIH
Method: as §1, §2, §3, §4, §5

[4] = test system: IL-2; assay: IL-2 inhibition assay, anti-CD3 (OKT3) stimulated PBMCs, Mesoscale IL-2 analysis; type: cell-based, human; details: Homo sapiens, PBMC, PBMCs on anti-CD3, 24 h, fold difference from DMSO control, read-out: IL-2, % Induction compared to DMSO
Method: For the IL-2 analysis, 96 well plates were precoated with 1 μg/mL anti-human CD3 antibody (OKT3, eBioscience Inc., San Diego, Calif.). After washing with PBS, the indicated compound was added (50 μL/well) followed by PBMCs diluted at 3-4 million cells/mL (150 μL/well). Plates were incubated for 24 h and the supernatants collected for Mesoscale IL-2 analysis. IL-2 activity is measured as fold difference from the DMSO control. […]
In Table 4, the fold-change values are reported as “A”, “B”, “C”, or “D”. “A” represents a fold-change value of equal to or less than 0.5 (value≤0.5); “B” represents a fold-change value of more than 0.5 and equal to or less than 1 (0.5<value≤1); “C” represents a fold-change value of more than 1 and less than 1.5 (1<value<1.5); and “D” represents a fold-change value of equal to or more than 1.5 (value≥1.5).

[5] = test system: IL-1β; assay: IL-1β inhibition, LPS-induced PBMCs or CD14+ monocytes, Meso Scale assay; type: cell-based; details: LPS 100 ng/mL 18-24 h, read-out: % Inhibition compared to DMSO, IL-1β; for inhibition at 1 µM: tested at 1 μM; for inhibition at 10 µM: tested at 10 μM
Method: as §6, §7

[6] = target: T3, Ikaros (Homo sapiens, UniProt Q13422+Q96SW2); assay: Western blot, degradation of cellular Ikaros in MV-4-11 cells; type: cell-based; details: MV4-11, tested at 1 μM, 6-8 hours, read-out: % Degradation compared to DMSO, Ikaros
T3 construct: endogenous in cells; host or cells: MV-4-11
T3 sequence (Q13422 whole entry): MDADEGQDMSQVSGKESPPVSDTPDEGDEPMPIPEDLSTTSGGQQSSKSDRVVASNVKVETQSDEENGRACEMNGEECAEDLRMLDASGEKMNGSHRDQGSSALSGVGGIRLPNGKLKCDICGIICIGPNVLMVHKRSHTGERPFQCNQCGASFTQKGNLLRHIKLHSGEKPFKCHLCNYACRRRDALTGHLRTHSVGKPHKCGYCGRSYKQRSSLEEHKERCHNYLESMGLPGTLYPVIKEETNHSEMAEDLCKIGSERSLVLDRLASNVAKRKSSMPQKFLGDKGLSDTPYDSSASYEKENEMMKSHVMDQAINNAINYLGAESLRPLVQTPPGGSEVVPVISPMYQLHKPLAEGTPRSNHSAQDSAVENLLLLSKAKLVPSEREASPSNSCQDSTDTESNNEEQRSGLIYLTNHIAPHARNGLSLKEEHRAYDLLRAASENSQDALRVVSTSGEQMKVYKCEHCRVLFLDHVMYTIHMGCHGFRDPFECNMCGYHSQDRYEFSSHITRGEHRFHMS
T3 sequence (Q96SW2 whole entry): as the sequence (Q96SW2 whole entry) above
T3 sequence (Q16531 whole entry partner): as the sequence (Q16531 whole entry partner) above
Method: as §1, §2, §3, §4, §5

[7] = test system: IL-6; assay: IL-6 inhibition, LPS-induced PBMCs or CD14+ monocytes, Meso Scale assay; type: cell-based; details: LPS 100 ng/mL 18-24 h, read-out: % Inhibition compared to DMSO, IL-6; for inhibition at 1 µM: tested at 1 μM; for inhibition at 10 µM: tested at 10 μM
Method: as §6, §7

T1 sequence (O43924 whole entry): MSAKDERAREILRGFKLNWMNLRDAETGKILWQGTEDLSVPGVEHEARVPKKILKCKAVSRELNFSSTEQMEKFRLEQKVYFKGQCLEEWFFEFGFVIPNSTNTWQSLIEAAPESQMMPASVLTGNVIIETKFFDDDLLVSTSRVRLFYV
T1 sequence (Q96SW2 whole entry): as the sequence (Q96SW2 whole entry) above
T1 sequence (Q16531 whole entry partner): as the sequence (Q16531 whole entry partner) above

Row | Dmax at 1 µM [1] [%] | Dmax at 1 µM [3] [%] | Dmax at 1 µM [6] [%] | Compound | inhibition at 1 µM [2] [%] | inhibition at 10 µM [2] [%] | fold induction at 1 µM [4] | fold induction at 10 µM [4] | inhibition at 1 µM [5] [%] | inhibition at 10 µM [5] [%] | inhibition at 1 µM [7] [%] | inhibition at 10 µM [7] [%]
1 | ≥ 75 | < 25 | < 25 | O=C1CC(N2Cc3c(cc(F)cc3C3CCCC3)C2=O)C(=O)N1 (stereo not drawn) [Compound 19, 3-(4-Cyclopentyl-6-fluoro-1-oxoisoindolin-2-yl)pyrrolidine-2,5-dione] | < 10 | < 10 | 0.5 to 1 | 0.5 to 1 | < 10 | < 10 | < 10 | < 10
2 | ≥ 75 | ≥ 75 | < 25 | CCC(C)c1cc(F)cc2c1CN(C1CCC(=O)NC1=O)C2=O (stereo not drawn) [Compound 33, 3-(4-(sec-butyl)-6-fluoro-1-oxoisoindolin-2-yl)piperidine-2,6-dione] | 25 to 50 | – | ≤ 0.5 | – | < 10 | – | < 10 | –
3 | < 25 | 25 to 50 | 50 to 75 | C[C@H](c1cccc2c1CN(C1CCC(=O)NC1=O)C2=O)C(F)(F)F (stereo partly drawn) [Compound 31] | < 10 | 10 to 25 | 0.5 to 1 | 0.5 to 1 | < 10 | < 10 | < 10 | < 10
4 | 25 to 50 | < 25 | < 25 | O=C1CCC(N2Cc3c(ccc(F)c3C3CCCC3)C2=O)C(=O)N1 (stereo not drawn) [Compound 24] | 10 to 25 | < 10 | 1 to 1.5 | 1 to 1.5 | < 10 | < 10 | < 10 | < 10
5 | 25 to 50 | 50 to 75 | < 25 | C[C@H](c1cc(F)cc2c1CN(C1CCC(=O)NC1=O)C2=O)C(F)(F)F (stereo partly drawn) [Compound 23] | < 10 | 25 to 50 | 0.5 to 1 | 0.5 to 1 | < 10 | < 10 | < 10 | < 10
6 | < 25 | < 25 | < 25 | O=C1CCC(N2Cc3c(C4CCCC4)ccc(F)c3C2=O)C(=O)N1 (stereo not drawn) [Compound 27] | 10 to 25 | 25 to 50 | 0.5 to 1 | 0.5 to 1 | < 10 | < 10 | 10 to 25 | < 10

Second part, the molecule before the results:

Row | Compound | Dmax at 1 µM [1] [%] | Dmax at 1 µM [3] [%] | Dmax at 1 µM [6] [%] | inhibition at 1 µM [2] [%] | inhibition at 10 µM [2] [%] | fold induction at 1 µM [4] | fold induction at 10 µM [4] | inhibition at 1 µM [5] [%] | inhibition at 10 µM [5] [%] | inhibition at 1 µM [7] [%] | inhibition at 10 µM [7] [%]
7 | O=C1CCC(N2Cc3c(cc(F)cc3C3CCCCCC3)C2=O)C(=O)N1 (stereo not drawn) [Compound 15] | ≥ 75 | 50 to 75 | 25 to 50 | < 10 | < 10 | 0.5 to 1 | ≤ 0.5 | < 10 | < 10 | < 10 | < 10
8 | CC1(N2Cc3c(cc(F)cc3C3CCCC3)C2=O)CCC(=O)NC1=O (stereo not drawn) [Compound 4, 3-(4-cyclopentyl-6-fluoro-1-oxoisoindolin-2-yl)-3-methylpiperidine-2,6-dione] | < 25 | < 25 | < 25 | 25 to 50 | > 50 | 0.5 to 1 | 0.5 to 1 | < 10 | 10 to 25 | < 10 | < 10
9 | O=C1CCC(N2C(=O)c3cc(F)cc(C4CCCC4)c3C2=O)C(=O)N1 (stereo not drawn) [Compound 12] | ≥ 75 | < 25 | < 25 | 10 to 25 | 25 to 50 | 0.5 to 1 | 0.5 to 1 | < 10 | < 10 | < 10 | < 10
10 | CC1CC(=O)NC(=O)C1N1Cc2c(cc(F)cc2C2CCCC2)C1=O (stereo not drawn) [Compound 6, 3-(4-cyclopentyl-6-fluoro-1-oxoisoindolin-2-yl)-4-methylpiperidine-2,6-dione] | ≥ 75 | 25 to 50 | < 25 | 10 to 25 | > 50 | 0.5 to 1 | ≤ 0.5 | < 10 | 10 to 25 | < 10 | < 10
11 | O=C1CCC(N2Cc3c(cc(F)cc3C3CCC(F)(F)CC3)C2=O)C(=O)N1 (stereo not drawn) [Compound 11] | ≥ 75 | 25 to 50 | ≥ 75 | < 10 | < 10 | 0.5 to 1 | 0.5 to 1 | < 10 | < 10 | < 10 | < 10
12 | O=C1CCC(N2C(=O)c3cccc(C4CCCC4)c3C2=O)C(=O)N1 (stereo not drawn) [Compound 10, 4-cyclopentyl-2-(2,6-dioxopiperidin-3-yl)isoindoline-1,3-dione] | 50 to 75 | < 25 | 25 to 50 | 10 to 25 | > 50 | 1 to 1.5 | 0.5 to 1 | < 10 | 10 to 25 | < 10 | 10 to 25
13 | O=C1CCC(N2Cc3c(cc(F)cc3C3CC3)C2=O)C(=O)N1 (stereo not drawn) [Compound 5] | ≥ 75 | ≥ 75 | 25 to 50 | 25 to 50 | > 50 | ≤ 0.5 | ≤ 0.5 | 25 to 50 | > 50 | < 10 | < 10
14 | COc1cc2c(c(C3CCCC3)c1)CN(C1CCC(=O)NC1=O)C2=O (stereo not drawn) [Compound 14] | 25 to 50 | 25 to 50 | 50 to 75 | 10 to 25 | 25 to 50 | 0.5 to 1 | 0.5 to 1 | < 10 | 10 to 25 | < 10 | < 10
